Data: ChEMBL document CHEMBL1201862, “PubChem BioAssay data set” (2004)
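Tested at 5 concentrations; 48 h exposure; 96-well plates; endpoints linearly interpolated, else capped at highest concentration. The concentration for 50% growth inhibition is given as GI50.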 Active and inactive are the calls of the source. Rule as the data show it: active = GI50 up to about 1.1 µM and inactive = higher.

Legend:
Assay in all cases: growth of human tumour cells (NCI), 48 h
UACC-62 = system: UACC-62
DMS-114 = system: DMS-114
SF-268 = system: SF-268
A549 = system: A549
SNB-75 = system: SNB-75
HL-60 = system: HL-60
SF-295 = system: SF-295
SF-539 = system: SF-539
TK-10 = system: TK-10
IGROV-1 = system: IGROV-1
786-0 = system: 786-0
HOP-18 = system: HOP-18
A498 = system: A498
SNB-19 = system: SNB-19
NCI-H460 = system: NCI-H460
SN12C = system: SN12C
HOP-62 = system: HOP-62
RXF 393 = system: RXF 393
DMS-273 = system: DMS-273
COLO 205 = system: COLO 205
DLD-1 = system: DLD-1
Malme-3M = system: Malme-3M
SR = system: SR
U-251 = system: U-251
SK-MEL-2 = system: SK-MEL-2
M19-MEL = system: M19-MEL
K562 = system: K562
SNB-78 = system: SNB-78
CCRF-CEM = system: CCRF-CEM
KM-20L2 = system: KM-20L2
OVCAR-8 = system: OVCAR-8
UO-31 = system: UO-31
KM12 = system: KM12
HT-29 = system: HT-29
CAKI-1 = system: CAKI-1
NCI-H522 = system: NCI-H522
M14 = system: M14
OVCAR-5 = system: OVCAR-5
HCT-15 = system: HCT-15
NCI-H226 = system: NCI-H226
OVCAR-4 = system: OVCAR-4
MOLT-4 = system: MOLT-4
SK-OV-3 = system: SK-OV-3
HOP-92 = system: HOP-92
LXFL 529 = system: LXFL 529
UACC-257 = system: UACC-257
RPMI-8226 = system: RPMI-8226
XF498 = system: XF498
SK-MEL-5 = system: SK-MEL-5
LOX IMVI = system: LOX IMVI
SK-MEL-28 = system: SK-MEL-28
ACHN = system: ACHN
NCI-H23 = system: NCI-H23
HCT-116 = system: HCT-116
OVCAR-3 = system: OVCAR-3
EKVX = system: EKVX
HCC 2998 = system: HCC 2998

CCOC(OC1=C(C#N)CCC1)C(CC)[Se]c1ccccc1 (configuration not stated)
GI50 (UACC-62): 19 µM (inactive) | GI50 (DMS-114): 3.1 µM (inactive) | GI50 (SF-268): 18.8 µM (inactive) | GI50 (A549): 63.1 µM (inactive) | GI50 (SNB-75): 24.2 µM (inactive) | GI50 (HL-60): 12.4 µM (inactive) | GI50 (SF-295): 16.6 µM (inactive) | GI50 (SF-539): 19 µM (inactive) | GI50 (TK-10): > 100 µM (inactive) | GI50 (IGROV-1): 24.9 µM (inactive) | GI50 (786-0): 15 µM (inactive) | GI50 (HOP-18): 27.2 µM (inactive) | GI50 (A498): 80.4 µM (inactive) | GI50 (SNB-19): 48.1 µM (inactive) | GI50 (NCI-H460): 36.4 µM (inactive) | GI50 (SN12C): 14.3 µM (inactive) | GI50 (HOP-62): > 100 µM (inactive) | GI50 (RXF 393): 20.9 µM (inactive) | GI50 (DMS-273): 11.2 µM (inactive) | GI50 (COLO 205): 19.5 µM (inactive) | GI50 (DLD-1): 19.6 µM (inactive) | GI50 (Malme-3M): 11.4 µM (inactive) | GI50 (SR): 7.19 µM (inactive) | GI50 (U-251): 10.3 µM (inactive) | GI50 (SK-MEL-2): 20.9 µM (inactive) | GI50 (M19-MEL): 13.9 µM (inactive) | GI50 (K562): 32.7 µM (inactive) | GI50 (SNB-78): 29.3 µM (inactive) | GI50 (CCRF-CEM): 15.6 µM (inactive) | GI50 (KM-20L2): 26.1 µM (inactive) | GI50 (OVCAR-8): 23.7 µM (inactive) | GI50 (UO-31): 24.2 µM (inactive) | GI50 (KM12): 64.4 µM (inactive) | GI50 (HT-29): 26.4 µM (inactive) | GI50 (CAKI-1): 41 µM (inactive) | GI50 (NCI-H522): 13.8 µM (inactive) | GI50 (M14): 15.2 µM (inactive) | GI50 (OVCAR-5): 22.7 µM (inactive) | GI50 (HCT-15): 25.6 µM | GI50 (NCI-H226): 19.2 µM (inactive) | GI50 (OVCAR-4): 16.1 µM (inactive) | GI50 (MOLT-4): 16.8 µM (inactive) | GI50 (SK-OV-3): > 100 µM (inactive) | GI50 (HOP-92): 23.4 µM (inactive) | GI50 (LXFL 529): 16.5 µM (inactive) | GI50 (UACC-257): 80.9 µM (inactive) | GI50 (RPMI-8226): 17.9 µM (inactive) | GI50 (XF498): 24.9 µM (inactive) | GI50 (SK-MEL-5): 15 µM (inactive) | GI50 (LOX IMVI): 4.5 µM (inactive) | GI50 (SK-MEL-28): 40.9 µM (inactive) | GI50 (ACHN): 29.8 µM (inactive) | GI50 (NCI-H23): 9.98 µM (inactive) | GI50 (HCT-116): 26.2 µM (inactive) | GI50 (OVCAR-3): 22.1 µM (inactive) | GI50 (EKVX): 35.7 µM (inactive) | GI50 (HCC 2998): 13.6 µM (inactive)
